Entries after “also recorded” stand apart in the source; their conditions may differ.
Legend:
primary human T cells = assay: FLuc oRNA LNP transfection of primary human activated T cells with or without ApoE3; type: cell-based; conditions: 200 ng RNA/well, 24-hour incubation, 4 independent donors
Protocol: Primary human T cells from independent donors were stimulated with aCD3/aCD28 and allowed to proliferate for 6 days in the presence of human serum and IL-2. Then, 100,000 cells were plated in a 96 well plate and LNPs containing oRNA coding for Firefly Luciferase (FLuc) were added to the cells at 200 ng RNA/well with or without Apolipoprotein E3 (ApoE3). After 24-hour incubation, luminescence was quantified using the Bright-Glo Luciferase Assay System (Promega) according to manufacturer's instructions and background luminescence from cells not treated with LNPs was subtracted. […] (See Example 70 for LNP formulation procedure, e.g., for 10a-27 (5.7A), 10a-26 (5.7A), 10a-27 (4.5D), and 10a-26 (4.5D) LNPs.)

splenic immune cells = assay: Cre circular RNA LNPs in Cre reporter (Ai9) mice: tdTomato+ splenic immune cells; type: in vivo; conditions: 0.5 mg/kg RNA intravenously, 48 hr
Protocol: Circular RNAs encoding Cre recombinase (Cre) are encapsulated into lipid nanoparticles as previously described. Female, 6-8 week old B6.Cg-Gt(ROSA)26Sortm9(CAG-tdTomato)Hze/J (Ai9) mice were dosed with lipid nanoparticles at 0.5 mg/kg RNA intravenously. Fluorescent tdTomato protein was transcribed and translated in Ai9 mice upon Cre recombination, meaning circular RNAs have been delivered to and translated in tdTomato+ cells. After 48 hr, mice were euthanized and the spleens were harvested, processed into a single cell suspension, and stained with various fluorophore-conjugated antibodies for immunophenotyping via flow cytometry.
Ai9 mice (B6.Cg-Gt(ROSA)26Sortm9(CAG-tdTomato)Hze/J, female, 6-8 weeks, n=3 per group) were injected i.v. with 0.5 mg/kg Cre oRNA LNPs or PBS. Ai9 mice transcribe and translate the fluorescent reporter tdTomato upon Cre recombination; meaning cells which are tdTomato+ have successfully been transfected with Cre oRNA.

[1] = In vivo analysis: FLuc oRNA LNPs, whole body and ex vivo IVIS flux in mice; set-up: species or system CD-1 or c57BL/6J mice; conditions: 0.5 mg/kg RNA intravenously
Protocol: Female CD-1 or female c57BL/6J mice ranging from 22-25 g were dosed at 0.5 mg/kg RNA intravenously. Six hours after injection, mice were injected intraperitoneally with 200 μL of D-luciferin at 15 mg/mL concentration. 5 minutes after injection, mice were anesthetized using isoflurane, and placed inside the IVIS Spectrum In Vivo Imaging System (Perkin Elmer) with dorsal side up. Post 10 minutes injection, mice were scanned for luminescence. Mice were euthanized and organs were extracted within 25 minutes of luciferin injection to scan for luminescence in liver, spleen, kidneys, lungs, and heart. Images (FIGS. 33A-B, 34A-B, 35A-B) were analyzed using Living Images (Perkin Elmer) software. Regions of interest were drawn to obtain flux and average radiance and analyzed for biodistribution of protein expression (FIG. 32A-B).

SMILES | Firefly luminescence (primary human T cells) | proportion of splenic immune cells expressing tdTomato (transfection) (splenic immune cells; 0.5 mg/kg) | proportion of splenic immune cells expressing tdTomato (transfection) (splenic immune cells; listed as Lipid 10a-27, 0.5 mg/kg) | proportion of splenic immune cells expressing tdTomato (transfection) (splenic immune cells) | spleen to liver ratios [1]
CCCCCCCCC(CCCCCC)C(=O)OCCCCCCN(CCCCCCOC(=O)C(CCCCCC)CCCCCCCC)CCCn1ccnc1C (centres unmarked) [Lipid 27 from Table 10a, ((3-(2-methyl-1H-imidazol-1-yl)propyl)azanediyl)bis(hexane-6,1-diyl) bis(2-hexyldecanoate)] | generally produced higher luminescence than those containing Lipid 26 from Table 10a (10a-26) | significantly higher myeloid and T cell transfection compared with Lipid 93-S14; also recorded: effective at delivering circular RNAs to many splenic immune cell subsets in mice | transfect significantly more splenic immune cells than those made with Lipid 10a-46 |  | 
CCCCCCCCCOC(=O)CCCCCCCN(CCO)CCCCCCCC(=O)OC(CCCCCCCC)CCCCCCCC [Lipid 15 from Table 10b] |  |  |  | effective at delivering circular RNAs to many splenic immune cell subsets in mice | maintaining the desired spleen to liver ratios

From US20230226096A1 (Orna Therapeutics, Inc., priority 2020, published 2023)
